Source: patent US20090047742A1 (priority 2005, published 2009)

What was measured:
caspase-3, PARP = experiment: Western blot of active caspase-3 and PARP in T-Rex-293 lysates; format: cell-based, human
Procedure: Western blot analysis and immunofluorescence were performed as previously described (Perez, D., and White, E. J. Cell Biol. 141: 1255-1266 (1998); Perez, D., and White, E. Mol. Cell 6: 53-63 (2000)). The term “Western blot” refers to a method for identifying proteins in a complex mixture; proteins are separated electrophoretically in a gel medium; transferred from the gel to a protein binding sheet or membrane; and the sheet or membrane containing the separated proteins exposed to specific antibodies which bind to, locate, and enable visualization of protein(s) of interest. T-Rex-293 (mazF/pcDNA3) and T-Rex-293 (mazF/mazE) cells were harvested at 0, 24, 48 and 72 hr post-treatment with tetracycline or staurosporine by scraping and centrifugation. All cell pellets were lysed in 2× Laemmli buffer. Cell lysates were subjected to electrophoresis on a 15% SDS-PAGE gel and then transferred onto an Immobilon-P membrane (Millipore, Bedford, Mass.). The blot was incubated with following antibody: anti-active caspase-3 rabbit polyclonal antibody (Cell Signaling Technology, Beverly, Mass.), anti-BAX, anti-BAK rabbit polyclonal antibody (NT) (Upstate Biotechnology Inc., Lake Placid, N.Y.), anti-BID goat polyclonal antibody (R&D Systems, Inc, Minneapolis, Minn.), anti-Bim rabbit polyclonal antibody (Alexis Biochemical, San Diego, Calif.), anti-BCL-2 hamster monoclonal antibody (PharMingen, San Diego, Calif.), anti-BCL-XL mouse monoclonal antibody (Trevigen, Gaithersburg, Md.), anti-MCL-1 rabbit polyclonal antibody (Stressgen Biotechnologies, Victoria, British Columbia, Canada), anti-PARP mouse monoclonal antibody (PharMingen, San Diego, Calif.), anti-PUMA rabbit polyclonal antibody (Nelson, D. A., et al., Genes Dev. 18: 2095-2107 (2004)), anti-E1A monoclonal antibody; anti-actin monoclonal antibody (Oncogene Research Products); and anti-Xpress monoclonal antibody (Invitrogen). An antibody directed to human NBK/BIK was generated by expression of a GST-tagged human NBK/BIK fusion protein encoding an N-terminal 78-amino acid region in bacteria and immunization of rabbits (Cocalico). Western Blots were developed with horseradish peroxidase-conjugated secondary antibodies using the ECL system (Amersham-Pharmacia Biotech, Piscataway, N.J.).

[1] = system: human GAPDH and β-actin mRNA; experiment: real-time RT-PCR quantification of mRNA levels in T-Rex-293 cells; format: cell-based; conditions: MazF induction for 72 hours, T-Rex-293 cells
Procedure: Northern blot analysis and real-time PCR (RT-PCR) was preformed as previously described (Zhang, Y., et al., Mol. Cell 12: 913-923 (2003); Cuconati, A., et al., Genes Dev. 17: 2922-2932 (2003)). Total RNA from tetracycline-treated (0, 24, 48 and 72 hr) or untreated (0, 24, 48 and 72 hr) T-Rex-293 (mazF/pcDNA3) and T-Rex-293 (mazF/mazE) cells for were isolated through the use of Trizol Reagent (Gibco, Carlsbad, Calif.). For Northern blot analysis, 10 μg of total RNA from each condition was subjected to formaldehyde-agarose gel electrophoresis followed by transfer onto GeneScreen Plus membrane (NEN Life Science Products, Boston, Mass.). The blot was hybridized with ^32P-labeled human GAPDH or β-actin cDNA. One hundred ng of total RNA was subjected to real time RT-PCR with the Taqman EZ-RT PCR kit (PE Applied Biosystems, Lincoln Centre Drive Foster City, Calif.) using recommended conditions provided by the vendor. […] Reactions were carried out in triplicate and the relative amount of human GAPDH and β-actin mRNA was calculated from the difference in fluorescence signal in the 24-, 48- and 72-hr samples compared with the corresponding 0 hr sample.

T-Rex-293 cells [2] = experiment: phase contrast morphology / cytopathic effect; format: cell-based, human; conditions: T-Rex-293, 72 hours post-induction of MazF
[3] = system: 28S and 18S ribosomal RNA; experiment: ribosomal RNA by agarose-formaldehyde gel electrophoresis and ethidium bromide staining; format: cell-based, human; conditions: MazF expressed for 72 hours, T-Rex-293 cells
Procedure: Total RNA from Tet-treated or -untreated T-Rex-293 cells at the indicated time points was probed with ^32P-labeled human GAPDH and β-actin cDNA. 28S and 18S ribosomal RNAs were visualized by agarose-formaldehyde gel electrophoresis followed by ethidium bromide staining. […] Human GAPDH and β-actin mRNA levels were quantified by real-time RT-PCR. Relative amounts of mRNA were calculated from the fluorescence signal in the 24-, 48- and 72-hours samples as compared with the corresponding 0-hour sample.

T-Rex-293 cells [4] = experiment: trypan blue exclusion viability; format: cell-based, human; conditions: T-Rex-293 (mazF/pcDNA3), MazF expression induced
Procedure: The viability of T-Rex-293 cells was determined by trypan blue exclusion as previously described (Degenhardt, K., et al., J. Biol. Chem. 277: 14127-14134 (2002)). T-Rex-293 (mazF/pcDNA3) and T-Rex-293 (mazF/mazE) cells were cultured for 24 hr before tetracycline treatment and then incubated for 0, 24, 48 and 72 hr at 37° C. in the presence or absence of 10 μg/ml tetracycline. After treatment, cells were collected by centrifugation of the supernatant plus adherent cells, which were harvested by trypsinization. Cells were resuspended in 500 μl of fresh medium containing 0.1% trypan blue solution (Sigma, St. Louis, Mo.) and then counted on a hemocytometer to assess the number of dead blue cells and the total number of cells counted. As a control for apoptotic cell death, T-Rex-293 (mazF/mazE) cells were treated with 1 μM staurosporine (Sigma, St. Louis, Mo.) for same time periods concurrently with tetracycline treatment.

## MazF: E. coli toxin; sequence specific endoribonuclease (mRNA interferase) cleaving single-stranded RNAs at ACA sequences; expressed from plasmid pcDNA4/TO/mazF
caspase-3, PARP; T-Rex-293 (mazF/pcDNA3) treated with Tet for 48 hours
  cleaved PARP (Western blot): detected
caspase-3, PARP; T-Rex-293 (mazF/pcDNA3), 72 hours post-induction of MazF
  cleaved PARP levels (Western blot): further increased
caspase-3, PARP; extracts from T-Rex-293 (mazF/pcDNA3) cells treated with Tet
  processed active caspase-3 (Western blot): presence of the processed active form of caspase-3
[1]
  decrease of both GAPDH and β-actin mRNAs (real-time RT-PCR): > 90%
T-Rex-293 cells [2]
  number of attached cells: dramatically decreased
[3]
  levels of 28S and 18S ribosomal RNA: did not change
T-Rex-293 cells [4]
  cell viability (trypan blue exclusion): dropped strikingly
